Values of other authors in patent US8957276B2 (priority 2009, dated 2015).

Key:
Human = conditions: in vivo, po
Rat = conditions: in vivo, po

SMILES	Acute toxicity (LD50) (Human)	Acute toxicity (LD50) (Rat)
[Hg] [Hg, metallic mercury]	43 mg/kg	–
[Cl][Hg][Cl] [HgCl2, mercury chloride (II)]	–	1 mg/kg
[O]=[Hg] [HgO, mercury oxide]	–	18 mg/kg
[Cl][Hg].[Cl][Hg] [Hg2Cl2]	–	210 mg/kg
[Cl][Hg] [HgCl]	–	210 mg/kg
[CH3][Hg][CH3] [(CH3)2Hg]	–	26 mg/kg
